Measurements from patent US20050060764A1, “Mouse model for bone metabolism” (priority 2003, published 2005).
Strand notation (5' to 3'): a small letter for the sugar, then the base; units joined by * are phosphorothioate-linked, units joined directly phosphodiester-linked; [ ] holds rarer units or linkages, { } end groups; capitals alone tell only the bases. e = 2'-O-(2-methoxyethyl) (MOE); [5mC] = 5-methylcytosine; d = 2'-deoxy (DNA)

The substances below were run on rat RANKL mRNA (assay: Antisense inhibition of rat RANKL mRNA levels in UMR-106 cells, quantitative real-time PCR (Table 3)). Details: averages from three experiments.
Format: cell-based
Set-up: concentration or dose not given beside the values
Protocol: Cells were seeded onto 24-well plates (Falcon-353047) at a density of […] for use in antisense oligonucleotide transfection.
Cells are treated and data are obtained in triplicate. […] Cells were harvested 16-24 hours after oligonucleotide treatment.
PCR reagents were obtained from Invitrogen Corporation, (Carlsbad, Calif.).
Probes and primers to rat RANKL were designed to hybridize to a rat RANKL sequence, using published sequence information (GenBank accession number NM_057149.1, incorporated herein as SEQ ID NO:18). For rat RANKL the PCR primers were: • forward primer: […] (SEQ ID NO:19) • reverse primer: […] (SEQ ID NO: 20) and the • PCR probe was: FAM-[…]-TAMRA (SEQ ID NO: 21) where FAM is the fluorescent reporter dye and TAMRA is the quencher dye. For rat GAPDH the PCR primers were: • forward primer: […](SEQ ID NO:22) • reverse primer: […](SEQ ID NO:23) and the • PCR probe was: 5′ JOE-[…]-TAMRA 3′ (SEQ ID NO: 24) where JOE is the fluorescent reporter dye and TAMRA is the quencher dye.
In accordance with the present invention, a second series of antisense compounds was designed to target different regions of the rat RANKL RNA, using published sequences (GenBank accession number NM_057149.1, incorporated herein as SEQ ID NO: 18, and GenBank accession number AF425669.1, incorporated herein as SEQ ID NO: 200). […] All cytidine residues are 5-methylcytidines. […] If present, “N.D.” indicates “no data”.

Row | Substance | % INHIB (inhibition of rat RANKL mRNA levels)
1 | 286627 (antisense eG*e[5mC]*eA*eA*eA*dT*dG*dT*dT*dG*dG*d[5mC]*dG*dT*dA*e[5mC]*eA*eG*eG*eT) [compound 286627] | 53%
2 | 286628 (antisense eA*eG*eA*eT*eA*dG*dT*d[5mC]*d[5mC]*dG*d[5mC]*dA*dG*dG*dT*eA*e[5mC]*eG*e[5mC]*eT) [compound 286628] | 24%
3 | 286629 (antisense eA*e[5mC]*e[5mC]*eA*eT*d[5mC]*dA*dG*d[5mC]*dT*dG*dA*dA*dG*dA*eT*eA*eG*eT*e[5mC]) [compound 286629] | 63%
4 | 286630 (antisense eT*eT*eT*eT*eA*dA*d[5mC]*dG*dA*d[5mC]*dA*dT*dA*dT*dA*e[5mC]*e[5mC]*eA*eT*e[5mC]) [compound 286630] | 44%
5 | 286631 (antisense eA*eT*eG*e[5mC]*eT*dG*dG*dT*dT*dT*dT*dA*dA*d[5mC]*dG*eA*e[5mC]*eA*eT*eA) [compound 286631] | 35%
6 | 286632 (antisense e[5mC]*eT*eT*eG*eG*dG*dA*dT*dT*dT*dT*dG*dA*dT*dG*e[5mC]*eT*eG*eG*eT) [compound 286632] | 51%
7 | 286633 (antisense e[5mC]*e[5mC]*eA*eG*eT*dT*d[5mC]*dT*dT*dA*dG*dT*dG*d[5mC]*dT*e[5mC]*e[5mC]*e[5mC]*e[5mC]*e[5mC]) [compound 286633] | 4%
8 | 286634 (antisense eA*eA*eT*eT*e[5mC]*dA*dG*dA*dA*dT*dT*d[5mC]*d[5mC]*d[5mC]*dT*eG*eA*e[5mC]*e[5mC]*eA) [compound 286634] | 21%
9 | 286635 (antisense eT*eA*eA*eA*eA*dG*dT*dG*dG*dA*dA*dT*dT*d[5mC]*dA*eG*eA*eA*eT*eT) [compound 286635] | 11%
10 | 286636 (antisense eT*eG*eG*eA*eA*dT*dA*dA*dA*dA*dG*dT*dG*dG*dA*eA*eT*eT*e[5mC]*eA) [compound 286636] | 21%
11 | 286637 (antisense e[5mC]*eG*e[5mC]*eA*eT*d[5mC]*dT*dT*dG*dA*dT*d[5mC]*d[5mC]*dG*dG*eA*eT*e[5mC]*e[5mC]*eA) [compound 286637] | 27%
12 | 286638 (antisense eA*eG*eT*eA*e[5mC]*dG*dT*d[5mC]*dG*d[5mC]*dA*dT*d[5mC]*dT*dT*eG*eA*eT*e[5mC]*e[5mC]) [compound 286638] | 26%
13 | 286639 (antisense e[5mC]*e[5mC]*e[5mC]*eA*eA*dA*dG*dT*dA*d[5mC]*dG*dT*d[5mC]*dG*d[5mC]*eA*eT*e[5mC]*eT*eT) [compound 286639] | 48%
14 | 286640 (antisense eA*eA*eA*eG*e[5mC]*d[5mC]*d[5mC]*d[5mC]*dA*dA*dA*dG*dT*dA*d[5mC]*eG*eT*e[5mC]*eG*e[5mC]) [compound 286640] | 56%
15 | 286641 (antisense e[5mC]*eT*eT*eT*eG*dA*dA*dA*dG*d[5mC]*d[5mC]*d[5mC]*d[5mC]*dA*dA*eA*eG*eT*eA*e[5mC]) [compound 286641] | 49%
16 | 286642 (antisense eT*e[5mC]*eA*eG*eT*d[5mC]*dT*dA*dT*dG*dT*d[5mC]*dT*dT*dG*eA*eA*e[5mC]*eT*eT) [compound 286642] | 41%
17 | 286643 (antisense eG*e[5mC]*eA*eT*eA*dT*d[5mC]*d[5mC]*dA*dT*dG*d[5mC]*dT*dA*dA*eG*eG*e[5mC]*eT*e[5mC]) [compound 286643] | 69%
18 | 286644 (antisense eG*eT*e[5mC]*eT*eT*dA*d[5mC]*dA*d[5mC]*dA*dT*dG*dT*dA*dT*e[5mC]*eT*eA*e[5mC]*eA) [compound 286644] | 57%
19 | 286645 (antisense e[5mC]*eT*eT*eA*eG*dT*dA*dG*dT*d[5mC]*dT*dT*dA*d[5mC]*dA*e[5mC]*eA*eT*eG*eT) [compound 286645] | 51%
20 | 286646 (antisense eT*eT*eT*eT*eG*dT*dA*d[5mC]*dA*dA*d[5mC]*dG*dT*dG*dG*eG*e[5mC]*e[5mC]*eA*e[5mC]) [compound 286646] | 53%

Row | Substance | % INHIB (inhibition of rat RANKL mRNA levels)
21 | 286647 (antisense eG*eA*e[5mC]*e[5mC]*eT*dG*dT*dA*d[5mC]*dA*dG*dG*dG*dT*d[5mC]*eG*eA*eG*eA*eG) [compound 286647] | 53%
22 | 286648 (antisense e[5mC]*e[5mC]*eA*eT*eT*dG*dT*dG*dT*dG*dA*dT*d[5mC]*dA*d[5mC]*e[5mC]*eA*eT*eG*eA) [compound 286648] | 72%
23 | 286649 (antisense eT*eA*eG*eA*e[5mC]*d[5mC]*d[5mC]*dA*dG*dA*dG*dA*d[5mC]*dT*dA*eT*eG*eT*eA*eT) [compound 286649] | 25%
24 | 286650 (antisense eG*eT*eG*eG*e[5mC]*dA*d[5mC]*dA*dG*dG*d[5mC]*d[5mC]*d[5mC]*dA*dG*eG*eA*eG*eT*eT) [compound 286650] | 53%
25 | 286651 (eA*eG*eG*eT*eT*d[5mC]*dT*d[5mC]*dA*dG*dT*dG*dG*d[5mC]*dA*e[5mC]*eA*eG*eG*e[5mC]; antisense) [compound 286651] | 80%
26 | 286652 (e[5mC]*eT*e[5mC]*eT*eG*d[5mC]*dA*dA*dT*dG*dT*dA*dA*d[5mC]*dG*eG*eT*eA*e[5mC]*e[5mC]; antisense) [compound 286652] | 53%
27 | 286653 (eA*eA*eA*e[5mC]*e[5mC]*dA*dT*d[5mC]*dA*dT*dT*dT*d[5mC]*dT*d[5mC]*eT*eG*e[5mC]*eA*eA; antisense) [compound 286653] | 58%
28 | 286654 (eA*e[5mC]*eT*eT*eA*dT*dT*dT*dG*d[5mC]*dA*dG*dG*dT*dT*e[5mC]*e[5mC]*eA*eG*e[5mC]; antisense) [compound 286654] | 55%
29 | 286655 (eG*eA*eA*eA*eA*d[5mC]*d[5mC]*dT*dT*dA*d[5mC]*dA*d[5mC]*d[5mC]*dT*eG*eA*eA*eA*eT; antisense) [compound 286655] | 0%
30 | 286656 (eT*eT*eT*eT*eG*d[5mC]*dA*d[5mC]*dA*dG*dA*dA*dA*dA*d[5mC]*e[5mC]*eT*eT*eA*e[5mC]; antisense) [compound 286656] | 12%
31 | 286657 (e[5mC]*e[5mC]*eA*eG*eT*dT*dA*dA*dA*dT*dA*d[5mC]*dA*dT*d[5mC]*eT*eT*eG*eA*e[5mC]; antisense) [compound 286657] | 10%
32 | aaaccatcatttctctgcaa (eA*eA*eA*e[5mC]*e[5mC]*dA*dT*d[5mC]*dA*dT*dT*dT*d[5mC]*dT*d[5mC]*eT*eG*e[5mC]*eA*eA; antisense) [ISIS 286653, 2′-MOE gapmer targeted to rat RANKL] | at least 40%
33 | aaagccccaaagtacgtcgc (eA*eA*eA*eG*e[5mC]*d[5mC]*d[5mC]*d[5mC]*dA*dA*dA*dG*dT*dA*d[5mC]*eG*eT*e[5mC]*eG*e[5mC]; antisense) [ISIS 286640, 2′-MOE gapmer targeted to rat RANKL] | at least 40%
34 | aacctgtattttcacggagt (eA*eA*e[5mC]*e[5mC]*eT*dG*dT*dA*dT*dT*dT*dT*d[5mC]*dA*d[5mC]*eG*eG*eA*eG*eT; antisense) [ISIS 286602, 2′-MOE gapmer targeted to rat RANKL] | at least 40%
35 | acagagcgatgctgcagacc (antisense eA*e[5mC]*eA*eG*eA*dG*d[5mC]*dG*dA*dT*dG*d[5mC]*dT*dG*d[5mC]*eA*eG*eA*e[5mC]*e[5mC]) [ISIS 286589, 2′-MOE gapmer targeted to rat RANKL] | at least 40%
36 | accatcagctgaagatagtc (eA*e[5mC]*e[5mC]*eA*eT*d[5mC]*dA*dG*d[5mC]*dT*dG*dA*dA*dG*dA*eT*eA*eG*eT*e[5mC]; antisense) [ISIS 286629, 2′-MOE gapmer targeted to rat RANKL] | at least 40%
37 | acccttagttttccgttgct (eA*e[5mC]*e[5mC]*e[5mC]*eT*dT*dA*dG*dT*dT*dT*dT*d[5mC]*d[5mC]*dG*eT*eT*eG*e[5mC]*eT; antisense) [ISIS 286618, 2′-MOE gapmer targeted to rat RANKL] | at least 40%
38 | acttatttgcaggttccagc (eA*e[5mC]*eT*eT*eA*dT*dT*dT*dG*d[5mC]*dA*dG*dG*dT*dT*e[5mC]*e[5mC]*eA*eG*e[5mC]; antisense) [ISIS 286654, 2′-MOE gapmer targeted to rat RANKL] | at least 40%
39 | agaggacagactgactttat (eA*eG*eA*eG*eG*dA*d[5mC]*dA*dG*dA*d[5mC]*dT*dG*dA*d[5mC]*eT*eT*eT*eA*eT; antisense) [ISIS 286611, 2′-MOE gapmer targeted to rat RANKL] | at least 40%
